Experimental data: patent publication US10913727B2, “Modulators of the integrated stress pathway” (Calico Life Sciences LLC, priority 2016, dated 2021)

The molecules below were run on HEK293T cells carrying the ATF4 luciferase reporter (assay: ATF4-Luc assay, in vitro model of Vanishing Cell White Matter Disease (VWMD)). Settings: Homo sapiens, HEK-293T, 1 μg/mL tunicamycin, 7 hours, One Glo luminescence.
Assay type: cell-based
Summary of the method: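 Stable HEK293T line with human ATF4 5′-UTR–firefly luciferase reporter treated with 1 μg/mL tunicamycin plus 200 nM compound for 7 h. Luminescence read; EC50 derived.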

| Structure (SMILES) | EC50 |
| --- | --- |
| Cc1csc(C(=O)NC23CC(NC(=O)COc4ccc(Cl)c(F)c4)(C2)C3)n1 [Compound 450, N-{3-[2-(4-chloro-3-fluorophenoxy)acetamido]bicyclo[1.1.1]pentan-1-yl}-4-methyl-1,3-thiazole-2-carboxamide] | 50 to 250 nM |
| O=C(COc1ccc(Cl)c(F)c1)NC12CC(NC(=O)c3ccc(C4=CCOCC4)nc3)(C1)C2 [Compound 155, N-{3-[2-(4-chloro-3-fluorophenoxy)acetamido]bicyclo[1.1.1]pentan-1-yl}-6-(3,6-dihydro-2H-pyran-4-yl)pyridine-3-carboxamide] | 1000 to 2000 nM |
| O=C(COc1ccc(Cl)c(F)c1)NC12CCC(NC(=O)c3onc4ccccc34)(CC1)C(O)C2 (stereo not shown) [Compound 332, N-{4-[2-(4-chloro-3-fluorophenoxy)acetamido]-2-hydroxybicyclo[2.2.2]octan-1-yl}-2,1-benzoxazole-3-carboxamide] | > 2000 nM |
| O=C(COc1ccc(F)c(F)c1)NC12CC(NC(=O)c3cnc(C(F)F)cn3)(C1)C2 [Compound 278, 5-(difluoromethyl)-N-{3-[2-(3,4-difluorophenoxy)acetamido]bicyclo[1.1.1]pentan-1-yl}pyrazine-2-carboxamide] | 250 to 1000 nM |
| Cn1cc(C(=O)NC23CC(NC(=O)COc4ccc(Cl)c(F)c4)(C2)C3)cn1 [Compound 246, N-{3-[2-(4-chloro-3-fluorophenoxy)acetamido]bicyclo[1.1.1]pentan-1-yl}-1-methyl-1H-pyrazole-4-carboxamide] | 250 to 1000 nM |
| Cc1cc2c(NC34CC(NC(=O)COc5ccc(F)cc5)(C3)C4)nccn2n1 [Compound 639, 2-(4-fluorophenoxy)-N-{3-[(2-methylpyrazolo[1,5-a]pyrazin-4-yl)amino]bicyclo[1.1.1]pentan-1-yl}acetamide] | 50 to 250 nM |
| Cc1occc1C(=O)NC12CC(NC(=O)COc3ccc(Cl)c(F)c3)(C1)C2 [Compound 556, N-{3-[2-(4-chloro-3-fluorophenoxy)acetamido]bicyclo[1.1.1]pentan-1-yl}-2-methylfuran-3-carboxamide] | 1000 to 2000 nM |
| Cc1ccc(C(=O)NC23CC(NC(=O)COc4ccc(Cl)c(F)c4)(C2)C3)c(C)n1 [Compound 684, N-{3-[2-(4-chloro-3-fluorophenoxy)acetamido]bicyclo[1.1.1]pentan-1-yl}-2,6-dimethylpyridine-3-carboxamide] | 1000 to 2000 nM |
| Cc1cnc(C(=O)NC23CC(NC(=O)COc4ccc(Cl)c(F)c4)(C2)C3)cn1 [Compound 114, N-{3-[2-(4-chloro-3-fluorophenoxy)acetamido]bicyclo[1.1.1]pentan-1-yl}-5-methylpyrazine-2-carboxamide] | 50 to 250 nM |
| Cc1cc(C(=O)NC23CC(NC(=O)COc4ccc(Cl)c(F)c4)(C2)C3)cnc1C [Compound 856, N-{3-[2-(4-chloro-3-fluorophenoxy)acetamido]bicyclo[1.1.1]pentan-1-yl}-5,6-dimethylpyridine-3-carboxamide] | 250 to 1000 nM |
| Cc1cc2c(NC34CC(NC(=O)COc5ccc(OC(F)(F)F)c(F)c5)(C3)C4)nccn2n1 [Compound 496, 2-[3-fluoro-4-(trifluoromethoxy)phenoxy]-N-{3-[(2-methylpyrazolo[1,5-a]pyrazin-4-yl)amino]bicyclo[1.1.1]pentan-1-yl}acetamide] | 50 to 250 nM |
| O=C(COc1ccc(Cl)c(F)c1)NC12CC(NC(=O)c3csc(C(F)(F)F)n3)(C1)C2 [Compound 641, N-{3-[2-(4-chloro-3-fluorophenoxy)acetamido]bicyclo[1.1.1]pentan-1-yl}-2-(trifluoromethyl)-1,3-thiazole-4-carboxamide] | < 50 nM |
| Cc1nnc(C(=O)NC23CC(NC(=O)COc4ccc(Cl)c(F)c4)(C2)C3)o1 [Compound 354, N-{3-[2-(4-chloro-3-fluorophenoxy)acetamido]bicyclo[1.1.1]pentan-1-yl}-5-methyl-1,3,4-oxadiazole-2-carboxamide] | 1000 to 2000 nM |
| CC(C)c1nc(C(=O)NC23CC(NC(=O)COc4ccc(Cl)c(F)c4)(C2)C3)co1 [Compound 245, N-{3-[2-(4-chloro-3-fluorophenoxy)acetamido]bicyclo[1.1.1]pentan-1-yl}-2-(propan-2-yl)-1,3-oxazole-4-carboxamide] | 250 to 1000 nM |
| Cc1ccc(S(=O)(=O)NC23CC(NC(=O)COc4ccc(Cl)c(F)c4)(C2)C3)cc1 [Compound 662, 2-(4-chloro-3-fluorophenoxy)-N-{3-[(4-methylbenzene-1-sulfonyl)amino]bicyclo[1.1.1]pentan-1-yl}acetamide] | > 2000 nM |
| O=C(COc1ccc(Cl)c(F)c1)NC12CC(NC(=O)c3cnc(C4CCC(F)(F)CC4)o3)(C1)C2 [Compound 126, N-{3-[2-(4-chloro-3-fluorophenoxy)acetamido]bicyclo[1.1.1]pentan-1-yl}-2-(4,4-difluorocyclohexyl)-1,3-oxazole-5-carboxamide] | 50 to 250 nM |
| Cc1cc(C(=O)NC23CC(NC(=O)COc4ccc(Cl)c(F)c4)(C2)C3)c(C)n1C1CC1 [Compound 842, N-{3-[2-(4-chloro-3-fluorophenoxy)acetamido]bicyclo[1.1.1]pentan-1-yl}-1-cyclopropyl-2,5-dimethyl-1H-pyrrole-3-carboxamide] | > 2000 nM |

| Structure (SMILES) | EC50 |
| --- | --- |
| Cn1c(C(=O)NC23CC(NC(=O)COc4ccc(Cl)c(F)c4)(C2)C3)cc2ccccc21 [Compound 648, N-{3-[2-(4-chloro-3-fluorophenoxy)acetamido]bicyclo[1.1.1]pentan-1-yl}-1-methyl-1H-indole-2-carboxamide] | 50 to 250 nM |
| O=C(COc1ccc(Cl)c(F)c1)NC12CCC(NC(=O)c3cnccn3)(CC1)C(O)C2 (stereo not shown) [Compound 219, N-{4-[2-(4-chloro-3-fluorophenoxy)acetamido]-2-hydroxybicyclo[2.2.2]octan-1-yl}pyrazine-2-carboxamide] | 50 to 250 nM |
| O=C(COc1ccc(Cl)c(F)c1)NC12CCC(NC(=O)c3cnc(C(F)(F)F)s3)(C1)C2 [Compound 647, N-{4-[2-(4-chloro-3-fluorophenoxy)acetamido]bicyclo[2.1.1]hexan-1-yl}-2-(trifluoromethyl)-1,3-thiazole-5-carboxamide] | 250 to 1000 nM |
| O=C(COc1ccc2c(c1)OC(F)(F)O2)NC12CC(NC(=O)c3ccc(C(=O)O)cc3)(C1)C2 [Compound 128, 4-[(3-{2-[(2,2-difluoro-2H-1,3-benzodioxol-5-yl)oxy]acetamido}bicyclo[1.1.1]-pentan-1-yl)carbamoyl]benzoic acid] | > 2000 nM |
| O=C(COc1ccc(Cl)c(F)c1)NC12CCC(NC(=O)c3csc(C4CC4)n3)(CC1)CC2O (stereo not shown) [Compound 522, N-{4-[2-(4-chloro-3-fluorophenoxy)acetamido]-3-hydroxybicyclo[2.2.2]octan-1-yl}-2-cyclopropyl-1,3-thiazole-4-carboxamide] | 50 to 250 nM |
| COc1ccc(C(=O)NC23CC(NC(=O)COc4ccc(Cl)c(F)c4)(C2)C3)cc1F [Compound 530, N-{3-[2-(4-chloro-3-fluorophenoxy)acetamido]bicyclo[1.1.1]pentan-1-yl}-3-fluoro-4-methoxybenzamide] | 250 to 1000 nM |
| O=C(COc1ccc(Cl)c(F)c1)NC12CCC(NC(=O)c3cnccn3)(CC1)[C@@H](O)C2 [Compound 732, N-{(2S)-4-[2-(4-chloro-3-fluorophenoxy)acetamido]-2-hydroxybicyclo[2.2.2]octan-1-yl}pyrazine-2-carboxamide] | 250 to 1000 nM |
| O=C(COc1ccc(Cl)cc1)NC12CC(Nc3cc(-c4ccc(Cl)cc4)on3)(C1)C2 [Compound 265, 2-(4-chlorophenoxy)-N-(3-{[5-(4-chlorophenyl)-1,2-oxazol-3-yl]amino}bicyclo[1.1.1]pentan-1-yl)acetamide] | < 50 nM |
| Cn1cnc2cc(C(=O)NC34CC(NC(=O)COc5ccc(Cl)c(F)c5)(C3)C4)ccc21 [Compound 767, N-{3-[2-(4-chloro-3-fluorophenoxy)acetamido]bicyclo[1.1.1]pentan-1-yl}-1-methyl-1H-benzimidazole-5-carboxamide] | > 2000 nM |
| O=C(COc1ccc(Cl)c(F)c1)NC12CC(NC(=O)c3cn4ccsc4n3)(C1)C2 [Compound 799, N-{3-[2-(4-chloro-3-fluorophenoxy)acetamido]bicyclo[1.1.1]pentan-1-yl}imidazo[2,1-b][1,3]thiazole-6-carboxamide] | > 2000 nM |
| CC(O)c1ccnc(C(=O)NC23CC(NC(=O)COc4ccc(Cl)c(F)c4)(C2)C3)c1 (stereo not shown) [Compound 524, N-{3-[2-(4-chloro-3-fluorophenoxy)acetamido]bicyclo[1.1.1]pentan-1-yl}-4-(1-hydroxyethyl)pyridine-2-carboxamide] | 250 to 1000 nM |
| CCc1ccc(C(=O)NC23CC(NC(=O)COc4ccc(Cl)c(Cl)c4)(C2)C3)nc1 [Compound 700, N-{3-[2-(3,4-dichlorophenoxy)acetamido]bicyclo[1.1.1]pentan-1-yl}-5-ethylpyridine-2-carboxamide] | < 50 nM |
| Cc1cnc(C(=O)NC23CCC(NC(=O)COc4ccc(Cl)c(F)c4)(C2)C3)s1 [Compound 616, N-{4-[2-(4-chloro-3-fluorophenoxy)acetamido]bicyclo[2.1.1]hexan-1-yl}-5-methyl-1,3-thiazole-2-carboxamide] | > 2000 nM |
| COc1ncc(F)cc1C(=O)NC12CC(NC(=O)COc3ccc(Cl)c(F)c3)(C1)C2 [Compound 863, N-{3-[2-(4-chloro-3-fluorophenoxy)acetamido]bicyclo[1.1.1]pentan-1-yl}-5-fluoro-2-methoxypyridine-3-carboxamide] | > 2000 nM |
| O=C(CCCc1cccc(Cl)c1)NC12CC(NC(=O)c3cnc(C(F)F)cn3)(C1)C2 [Compound 946, N-{3-[4-(3-chlorophenyl)butanamido]bicyclo[1.1.1]pentan-1-yl}-5-(difluoromethyl)pyrazine-2-carboxamide] | > 2000 nM |
| O=C(COc1ccc(Cl)c(F)c1)NC12CC(NC(=O)c3n[nH]c4ccccc34)(C1)C2 [Compound 318, N-{3-[2-(4-chloro-3-fluorophenoxy)acetamido]bicyclo[1.1.1]pentan-1-yl}-1H-indazole-3-carboxamide] | > 2000 nM |
| COc1ccccc1C(=O)NC12CC(NC(=O)COc3ccc(Cl)c(F)c3)(C1)C2 [Compound 529, N-{3-[2-(4-chloro-3-fluorophenoxy)acetamido]bicyclo[1.1.1]pentan-1-yl}-2-methoxybenzamide] | > 2000 nM |
